According to patent publication US7396837B2, “Antitumoral analogs of lamellarins” (Pharma Mar, S.A.U., priority 2002, dated 2008):

Assays:
Format in all cases: cell-based
[1] = test system: IGROV; assay: SRB colorimetric cell growth inhibition assay, IGROV; details: Homo sapiens, IGROV
How it was run: (§1)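 Continuous-exposure format, human tumour lines. SRB colour reaction quantifies growth/viability. Triplicate wells → mean ± SD → GI, TGI, LC.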

[2] = test system: IGROV-ET; assay: SRB colorimetric cell growth inhibition assay, IGROV-ET (ET-743 resistant); details: Homo sapiens, IGROV-ET
How it was run: as §1

[3] = test system: K-562; assay: SRB colorimetric cell growth inhibition assay, K-562; details: Homo sapiens, K562, K-562
How it was run: as §1

[4] = test system: A-549; assay: SRB colorimetric cell growth inhibition assay, A-549; details: Homo sapiens, A549, A-549
How it was run: as §1

[5] = test system: SK-MEL-28; assay: SRB colorimetric cell growth inhibition assay, SK-MEL-28; details: Homo sapiens, SK-MEL-28, MEL-28
How it was run: as §1

[6] = test system: LoVo-Dox; assay: SRB colorimetric cell growth inhibition assay, LoVo-Dox (MDR); details: Homo sapiens, LOVO-DOX
How it was run: as §1

[7] = test system: LoVo; assay: SRB colorimetric cell growth inhibition assay, LoVo; details: Homo sapiens, LoVo
How it was run: as §1

[8] = test system: HT-29; assay: SRB colorimetric cell growth inhibition assay, HT-29; details: Homo sapiens, HT-29, HT-29
How it was run: as §1

[9] = test system: LNCaP; assay: SRB colorimetric cell growth inhibition assay, LNCaP; details: Homo sapiens, LNCaP, LN-caP
How it was run: as §1

[10] = test system: SKOV-3; assay: SRB colorimetric cell growth inhibition assay, SKOV-3; details: Homo sapiens
From the text: Inhibition of Cell Growth by Colorimetric Assay.
A colorimetric type of assay, using sulforhodamine B (SRB) reaction has been adapted for a quantitative measurement of cell growth and viability (following the technique described by P. A. Skehan, et al., J. Natl. Cancer Inst. 1990, 82, 1107-1112).
This form of assay employs 96 well cell culture microplates of 9 mm diameter (T. Mosmann et al., J. of Immunological Methods 1983, 65, 55-63; G. T. Faircloth et al., J. of Tissue and Culture Methods 1988, 11, 201-205).
Most of the cell lines are obtained from American Type Culture Collection (ATCC) derived from different human cancer types.
The values for mean +/− SD of data from triplicate wells are calculated. Some parameters for cellular responses can be calculated: GI=growth inhibition, TGI=total growth inhibition (cytostatic effect) and LC=cell killing (cytotoxic effect).

[11] = test system: PANC-1; assay: SRB colorimetric cell growth inhibition assay, PANC-1; details: Homo sapiens, PANC-1, PANC-1
How it was run: as §1

[12] = test system: DU-145; assay: SRB colorimetric cell growth inhibition assay, DU-145; details: Homo sapiens, DU-145, DU-145
How it was run: as §1

[13] = test system: SK-BR-3; assay: SRB colorimetric cell growth inhibition assay, SK-BR-3; details: Homo sapiens, SK-BR-3, SK-BR-3
How it was run: as §1

Compound: COc1cc(-c2c3c4cc(OC)c(OC(=O)[C@H](C)NC(=O)OC(C)(C)C)cc4oc(=O)c3n3ccc4cc(OC(=O)[C@H](C)NC(=O)OC(C)(C)C)c(OC)cc4c23)ccc1OC(=O)[C@H](C)NC(=O)OC(C)(C)C [Compound 41]
- GI50 ([1]; GI=growth inhibition, read-out: GI50 IGROV): 0.0917 µM
- CC50 ([1]; LC=cell killing (cytotoxic effect), read-out: LC50 IGROV): 4.7 µM
- IC (TGI) ([1]; TGI=total growth inhibition (cytostatic effect), read-out: TGI IGROV): 0.492 µM
- GI50 ([2]; GI=growth inhibition, read-out: GI50 IGROV-ET): 0.188 µM
- CC50 ([2]; LC=cell killing (cytotoxic effect), read-out: LC50 IGROV-ET): 9.87 µM
- IC (TGI) ([2]; TGI=total growth inhibition (cytostatic effect), read-out: TGI IGROV-ET): 0.852 µM
- GI50 ([3]; GI=growth inhibition, read-out: GI50 K-562): 1.77 µM
- CC50 ([3]; LC=cell killing (cytotoxic effect), read-out: LC50 K-562): 8.02 µM
- IC (TGI) ([3]; TGI=total growth inhibition (cytostatic effect), read-out: TGI K-562): 3.76 µM
- GI50 ([4]; GI=growth inhibition, read-out: GI50 A-549): 2.42 µM
- CC50 ([4]; LC=cell killing (cytotoxic effect), read-out: LC50 A-549): 9.87 µM
- IC (TGI) ([4]; TGI=total growth inhibition (cytostatic effect), read-out: TGI A-549): 8.01 µM
- GI50 ([5]; GI=growth inhibition, read-out: GI50 MEL-28): 1.86 µM
- CC50 ([5]; LC=cell killing (cytotoxic effect), read-out: LC50 MEL-28): 9.43 µM
- IC (TGI) ([5]; TGI=total growth inhibition (cytostatic effect), read-out: TGI MEL-28): 4.19 µM
- GI50 ([6]; GI=growth inhibition, read-out: GI50 LOVO-DOX): 4.2 µM
- CC50 ([6]; LC=cell killing (cytotoxic effect), read-out: LC50 LOVO-DOX): 9.87 µM
- IC (TGI) ([6]; TGI=total growth inhibition (cytostatic effect), read-out: TGI LOVO-DOX): 9.87 µM
- GI50 ([7]; GI=growth inhibition, read-out: GI50 LOVO): 3.31 µM
- CC50 ([7]; LC=cell killing (cytotoxic effect), read-out: LC50 LOVO): 9.87 µM
- IC (TGI) ([7]; TGI=total growth inhibition (cytostatic effect), read-out: TGI LOVO): 9.87 µM
- GI50 ([8]; GI=growth inhibition, read-out: GI50 HT-29): 3.24 µM
- CC50 ([8]; LC=cell killing (cytotoxic effect), read-out: LC50 HT-29): 9.87 µM
- IC (TGI) ([8]; TGI=total growth inhibition (cytostatic effect), read-out: TGI HT-29): 8.89 µM
- GI50 ([9]; GI=growth inhibition, read-out: GI50 LN-caP): 2.1 µM
- CC50 ([9]; LC=cell killing (cytotoxic effect), read-out: LC50 LN-caP): 9.87 µM
- IC (TGI) ([9]; TGI=total growth inhibition (cytostatic effect), read-out: TGI LN-caP): 6.47 µM
- GI50 ([10]; SK-OV-3, SKOV-3, GI=growth inhibition, read-out: GI50 SKOV-3): 5.95 µM
- CC50 ([10]; SK-OV-3, SKOV-3, LC=cell killing (cytotoxic effect), read-out: LC50 SKOV-3): 9.87 µM
- IC (TGI) ([10]; SK-OV-3, SKOV-3, TGI=total growth inhibition (cytostatic effect), read-out: TGI SKOV-3): 9.87 µM
- GI50 ([11]; GI=growth inhibition, read-out: GI50 PANC-1): 2.48 µM
- CC50 ([11]; LC=cell killing (cytotoxic effect), read-out: LC50 PANC-1): 9.87 µM
- IC (TGI) ([11]; TGI=total growth inhibition (cytostatic effect), read-out: TGI PANC-1): 9.87 µM
- GI50 ([12]; GI=growth inhibition, read-out: GI50 DU-145): 0.679 µM
- CC50 ([12]; LC=cell killing (cytotoxic effect), read-out: LC50 DU-145): 9.87 µM
- IC (TGI) ([12]; TGI=total growth inhibition (cytostatic effect), read-out: TGI DU-145): 9.87 µM
- GI50 ([13]; GI=growth inhibition, read-out: GI50 SK-BR-3): 1.62 µM
- CC50 ([13]; LC=cell killing (cytotoxic effect), read-out: LC50 SK-BR-3): 9.87 µM
- IC (TGI) ([13]; TGI=total growth inhibition (cytostatic effect), read-out: TGI SK-BR-3): 4.85 µM
